Experimental data as given in patent US20180084784A1, “METHODS AND COMPOSITIONS FOR CONTROLLING FUNGUS AND FUNGAL SPORES AND IMPROVING PLANT QUALITY” (BAYER CROPSCIENCE LP, priority 2016, published 2018).
Read-outs that look alike come from different tables or passages of the source.

Columns and labels:
[1] = tested on: Pythium aphanidermatum zoospores
Experimental: Tests were conducted on fescue leaf blades. […] Two agar plugs containing Pythium aphanidermatum mycelium were placed in the jar containing the fescue leaves and allowed to incubate for 5 days.
A 1.0 ml aliquot was removed from each treatment and streaked onto potato dextrose agar. […] After five days the plates were examined for Pythium growth.

[2] = tested on: Pythium aphanidermatum zoospores; assay: Example 3: hydrogen peroxide alone and hydrolase enzyme alone, 12 days incubation; type: cell-based
Experimental: Tests were conducted on fescue leaf blades. […] Two agar plugs containing Pythium aphanidermatum mycelium were placed in the jar containing the fescue leaves and allowed to incubate for 12 days. Ten jars were used in total. […] Each of these jars was subject to the following hydrogen peroxide treatments: […] The remaining five jars were used for testing the effect of hydrolase enzyme alone. Each of these jars was subject to the following enzyme treatments: […] (2) 0.016% enzyme v/v concentration; (3) 0.0016% enzyme v/v concentration; […]

[3] = tested on: Pythium aphanidermatum zoospores; assay: Example 4: hydrogen peroxide alone and enzyme alone, 8 days incubation; type: cell-based
Experimental: Tests were conducted on fescue leaf blades. […] Eleven jars were used in total. […] The remaining six jars were used for testing the effect of hydrolase enzyme alone. Each of these jars was subject to the following enzyme treatments: (1) untreated; (2) 0.16% enzyme v/v concentration; (3) 0.088% enzyme v/v concentration; […] (5) 0.0142% enzyme v/v concentration; and (6) 0.0124% enzyme v/v concentration.

[4] = tested on: Pythium aphanidermatum zoospores; assay: Example 5: enzyme and hydrogen peroxide, alone and combined; type: cell-based
Experimental: (§1) Tests were conducted on fescue leaf blades. […] Two agar plugs containing Pythium aphanidermatum mycelium were placed in the jar containing the fescue leaves and allowed to incubate for 7 days.
(§2) A 1.0 ml aliquot was removed from each treatment and streaked onto potato dextrose agar.

[5] = tested on: Pythium aphanidermatum zoospores; assay: Example 6: enzyme and hydrogen peroxide, alone and combined; type: cell-based
Experimental: as §1, §2

[6] = tested on: Pythium aphanidermatum zoospores; assay: Example 8: enzyme and hydrogen peroxide, alone and combined; type: cell-based
Experimental: as §1, §2

[7] = tested on: Pythium aphanidermatum zoospores; assay: Example 9: enzyme and hydrogen peroxide, alone and combined; type: cell-based
Experimental: as §1
A 1.0 mL aliquot was removed from each treatment and streaked onto potato dextrose agar.

[8] = tested on: Pythium aphanidermatum zoospores; assay: Example 7: enzyme and hydrogen peroxide, confirmation of Example 6
Experimental: Tests were conducted on fescue leaf blades. Five one-inch long fescue leaf blades were placed in 100 ml water in a 250 ml jar and sterilized for 2 consecutive days for 20 min. Two agar plugs containing Pythium aphanidermatum mycelium were placed in the jar containing the fescue leaves and allowed to incubate for 7 days.
A 1.0 ml aliquot was removed from each treatment and streaked onto potato dextrose agar. […] After three days the plates were examined for Pythium growth.

[9] = 0.0003% hydrogen peroxide v/v concentration
[10] = 0.003% hydrogen peroxide v/v concentration
[11] = 0.03% hydrogen peroxide v/v concentration
[12] = 0.006% hydrogen peroxide v/v concentration
[13] = 0.012% hydrogen peroxide v/v concentration
[14] = 0.014% hydrogen peroxide v/v concentration
[15] = 0.016% hydrogen peroxide v/v concentration
[16] = 0.018% hydrogen peroxide v/v concentration
[17] = 0.02% hydrogen peroxide v/v concentration

Pythium growth on plates ([2]; all tested concentrations of hydrogen peroxide except 0.03% v/v): grew on all plates
SMILES: OO [hydrogen peroxide]
% Reduction of Pythium [1, 9]: 0% | Number of plates (4 reps) with Pythium growth after 5 days [1, 9]: 4 | % Reduction of Pythium [1, 10]: 0% | Number of plates (4 reps) with Pythium growth after 5 days [1, 10]: 4 | % Reduction of Pythium [1, 11]: 75% | Number of plates (4 reps) with Pythium growth after 5 days [1, 11]: 1 | % Reduction of Pythium ([1]; 0.3% hydrogen peroxide v/v concentration): 100% | % Reduction of Pythium ([1]; 1.5% hydrogen peroxide v/v concentration): 100% | % of Potato Dextrose Sugar Agar Plate Covered with Pythium [2, 10]: 100% | Number of plates (4 reps) with Pythium growth after 3 days [2, 10]: 4 | % of Potato Dextrose Sugar Agar Plate Covered with Pythium [2, 12]: 50-90% | Number of plates (4 reps) with Pythium growth after 3 days [2, 12]: 4 | % of Potato Dextrose Sugar Agar Plate Covered with Pythium [2, 13]: <50% | Number of plates (4 reps) with Pythium growth after 3 days [2, 13]: 4 | % of Potato Dextrose Sugar Agar Plate Covered with Pythium [2, 11]: 0% | Number of plates (4 reps) with Pythium growth after 3 days [2, 11]: 0 | % of Potato Dextrose Sugar Agar Plate Covered with Pythium [3, 13]: 36.25% | % of Potato Dextrose Sugar Agar Plate Covered with Pythium [3, 14]: 60% | % of Potato Dextrose Sugar Agar Plate Covered with Pythium [3, 15]: 0% | % of Potato Dextrose Sugar Agar Plate Covered with Pythium [3, 16]: 0% | % of Potato Dextrose Sugar Agar Plate Covered with Pythium [4, 10]: 100% | Number of plates (4 reps) with Pythium growth after 3 days [4, 10]: 4 | % of Potato Dextrose Sugar Agar Plate Covered with Pythium [4, 14]: 71.25% | Number of plates (4 reps) with Pythium growth after 3 days [4, 14]: 4 | % of Potato Dextrose Sugar Agar Plate Covered with Pythium [5, 14]: 17.5% | Number of plates (4 reps) with Pythium growth after 3 days [5, 14]: 1 | % of Potato Dextrose Sugar Agar Plate Covered with Pythium [5, 15]: 10% | Number of plates (4 reps) with Pythium growth after 3 days [5, 15]: 1 | % of Potato Dextrose Sugar Agar Plate Covered with Pythium [5, 16]: 17.5% | Number of plates (4 reps) with Pythium growth after 3 days [5, 16]: 1 | % of Potato Dextrose Sugar Agar Plate Covered with Pythium [6, 14]: 90% | Number of plates (4 reps) with Pythium growth after 3 days [6, 14]: 4 | % of Potato Dextrose Sugar Agar Plate Covered with Pythium [6, 17]: 56.3% | Number of plates (4 reps) with Pythium growth after 3 days [6, 17]: 4 | % of Potato Dextrose Sugar Agar Plate Covered with Pythium [7, 14]: 100% | Number of plates (4 reps) with Pythium growth after 3 days [7, 14]: 4 | % of Potato Dextrose Sugar Agar Plate Covered with Pythium [7, 15]: 63.75% | Number of plates (4 reps) with Pythium growth after 3 days [7, 15]: 4 | % of Potato Dextrose Sugar Agar Plate Covered with Pythium [7, 16]: 91.25% | Number of plates (4 reps) with Pythium growth after 3 days [7, 16]: 4 | % of Potato Dextrose Sugar Agar Plate Covered with Pythium [7, 17]: 25% | Number of plates (4 reps) with Pythium growth after 3 days [7, 17]: 4 | % of Potato Dextrose Sugar Agar Plate Covered with Pythium [8, 14]: 72.5% | Number of plates (4 reps) with Pythium growth after 3 days [8, 14]: 4 | % of Potato Dextrose Sugar Agar Plate Covered with Pythium [8, 15]: 38.8% | Number of plates (4 reps) with Pythium growth after 3 days [8, 15]: 4 | % of Potato Dextrose Sugar Agar Plate Covered with Pythium [8, 16]: 85.8% | Number of plates (4 reps) with Pythium growth after 3 days [8, 16]: 4
